The record followed here is patent US20120121540A1 (priority 2007, published 2012).

The assay can be described thus: HCV replicon assay (luciferase reporter, ET cell line). It counts as cell-based. The settings on record: Hepatitis C virus, HCV replicon luciferase activity in ET cells. Summed up:
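EC50 and, via WST-1 cytotoxicity, TC50 were fitted with a Hill-coefficient equation to % inhibition across 10 two-fold dilutions. Compounds at 0.1 nM-[…] with 0.5% DMSO were applied 24 h post-seeding to replicon-bearing ET cells (luc-ubi-neo/NS3-5B, adaptive mutations). Firefly luciferase signal was measured after 48-72 h.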
For orientation: A replicon is a self-replicating genome or part of one, used to study replication in cells.
As for `N#Cc1ccc(F)cc1C1=CCN(C(=O)c2nc3c(C(F)(F)F)cc(-c4ccoc4)cn3c2Cl)CC1` [Compound 569, 2-[1-(3-Chloro-6-furan-3-yl-8-trifluoromethyl-imidazo[1,2-a]pyridine-2-carbonyl)-1,2,3,6-tetrahydro-pyridin-4-yl]-4-fluoro-benzonitrile], the inhibition (commonly the drop in the measured response relative to a control, in per cent) at 10 µM stood at 85.3%.

In turn, `N#Cc1cc(F)ccc1C1=CCN(C(=O)c2nc3c(C(F)(F)F)cc(-c4ccoc4)cn3c2Cl)CC1` [Compound 570, 2-[1-(3-Chloro-6-furan-3-yl-8-trifluoromethyl-imidazo[1,2-a]pyridine-2-carbonyl)-1,2,3,6-tetrahydro-pyridin-4-yl]-5-fluoro-benzonitrile] had an inhibition at 10 µM of 89.1%. Consider `O=C(c1nc2c(C(F)(F)F)cc(-c3ccoc3)cn2c1Cl)N1CC=C(c2ncccc2F)CC1` [Compound 571, (3-Chloro-6-furan-3-yl-8-trifluoromethyl-imidazo[1,2-a]pyridin-2-yl)-(3-fluoro-3′,6′-dihydro-2′H-[2,4′]bipyridinyl-1′-yl)-methanone], for which at 10 µM the inhibition was 97.8%. The compound `O=C(c1nc2c(C(F)(F)F)cc(-c3ccoc3)cn2c1Cl)N1CC=C(c2ccncc2F)CC1` [Compound 572, (3-Chloro-6-furan-3-yl-8-trifluoromethyl-imidazo[1,2-1]pyridine-2-yl)-(3′-fluoro-3,6-dihydro-2H-[4,4′]bipyridinyl-1-yl)-methanone] registered an inhibition at 10 µM of 98.2%. As to `O=C(c1nc2c(C(F)(F)F)cc(-c3ccoc3)cn2c1Cl)N1CC=C(c2ncc(CO)s2)CC1` [Compound 573, (3-Chloro-6-furan-3-yl-8-trifluoromethyl-imidazo[1,2-a]pyridine-2-yl)-[4-(5-hydroxymethyl-thiazol-2-yl)-3,6-dihydro-2H-pyridin-1-yl]-methanone], the inhibition at 10 µM came out at 91.2%. With `O=C(c1nc2c(C(F)(F)F)cc(-c3ccoc3)cn2c1Cl)N1CC=C(OS(=O)(=O)C(F)(F)F)CC1` [Compound 574, Trifluoro-methanesulfonic Acid 1-(3-chloro-6-furan-3-yl-8-trifluoromethyl-imidazo[1,2-a]pyridine-2-carbonyl)-1,2,3,6-tetrahydro-pyridin-4-yl Ester], 10 µM produced 79.1% inhibition.

`O=C(c1nc2c(C(F)(F)F)cc(-c3ccoc3)cn2c1Cl)N1CC=C(c2ccoc2)CC1` [Compound 575, (3-Chloro-6-furan-3-yl-8-trifluoromethyl-imidazo[1,2-a]pyridine-2-yl)-(4-furan-3-yl-3,6-dihydro-2H-pyridin-1-yl)-methanone] returned an inhibition at 10 µM of 94.3%. Compound `O=C(c1nc2c(C(F)(F)F)cc(-c3ccoc3)cn2c1Cl)N1CC=C(c2cccc(F)c2)CC1` [Compound 576, (3-Chloro-6-furan-3-yl-8-trifluoromethyl-imidazo[1,2-a]pyridin-2-yl)-[4-(3-fluoro-phenyl)-3,6-dihydro-2H-pyridin-1-yl)-methanone] came in with an inhibition at 10 µM of 82.6%.

`CN(C)S(=O)(=O)c1ccccc1C1=CCN(C(=O)c2nc3c(C(F)(F)F)cc(-c4ccoc4)cn3c2Cl)CC1` [Compound 577, 2-[1-(3-Chloro-6-furan-3-yl-8-trifluoromethyl-imidazo[1,2-a]pyridin-2-carbonyl)-1,2,3,6-tetrahydro-pyridin-4-yl)-N,N-dimethyl-benzenesulfonamide]: the inhibition at 10 µM came out at 71.2%. Under `Cn1cc(C2=CCN(C(=O)c3nc4c(C(F)(F)F)cc(-c5ccoc5)cn4c3Cl)CC2)cn1` [Compound 578, (3-Chloro-6-furan-3-yl-8-trifluoromethyl-imidazo[1,2-a]pyridin-2-yl)-[4-(1-methyl-1H-pyrazol-4-yl)-3,6-dihydro-2H-pyridin-1-yl)-methanone] stands 97.2%; under `O=C(c1nc2c(C(F)(F)F)cc(-c3ccoc3)cn2c1Cl)N1CC=C(c2cn[nH]c2)CC1` [Compound 579, (3-Chloro-6-furan-3-yl-8-trifluoromethyl-imidazo[1,2-a]pyridin-2-yl)-[4-(1-1H-pyrazol-4-yl)-3,6-dihydro-2H-pyridin-1-yl)-methanone], 97.6%. Take `O=C(c1nc2c(C(F)(F)F)cc(-c3ccoc3)cn2c1Cl)N1CC=C(c2cccnc2F)CC1` [Compound 581, (3-Chloro-6-furan-3-yl-8-trifluoromethyl-imidazo[1,2-a]pyridin-2-yl)-(2-fluoro-3′,6′-dihydro-2′H-[3,4′]bipyridinyl-1′-yl)-methanone]: the inhibition at 10 µM was found to be 98.2%. The compound `O=C(c1nc2c(C(F)(F)F)cc(-c3ccoc3)cn2c1Cl)N1CC=C(c2cnoc2)CC1` [Compound 582, (3-Chloro-6-furan-3-yl-8-trifluoromethyl-imidazo[1,2-a]pyridin-2-yl)-(4-isoxazol-4-yl-3,6-dihydro-2H-pyridin-1-yl)-methanone] registered an inhibition at 10 µM of 91.2%. The compound `O=C(c1nc2c(C(F)(F)F)cc(-c3ccoc3)cn2c1Cl)N1CC=C(c2cc[nH]c2)CC1` [Compound 583, (3-Chloro-6-furan-3-yl-8-trifluoromethyl-imid azo[1,2-a]pyridin-2-yl)-[4-(1H-pyrrol-3-yl)-3,6-dihydro-2H-pyridin-1-yl]-methanone] gave an inhibition at 10 µM of 67.9%. The compound `O=C(c1nc2c(C(F)(F)F)cc(-c3ccoc3)cn2c1Cl)N1CC=C(c2ccn[nH]2)CC1` [Compound 584, (3-Chloro-6-furan-3-yl-8-trifluoromethyl-imidazo[1,2-a]pyridin-2-yl)-[4-(2H-pyrazol-3-yl)-3,6-dihydro-2H-pyridin-1-yl]methanone] gave an inhibition at 10 µM of 72.5%. `CC(=O)c1ccc(C2=CCN(C(=O)c3nc4c(C(F)(F)F)cc(-c5ccoc5)cn4c3Cl)CC2)s1` [Compound 585, 1-{5-[1-(3-Chloro-6-furan-3-yl-8-trifluoromethyl-imidazo[1,2-a]pyridine-2-carbonyl)-1,2,3,6-tetrahydro-pyridin-4-yl]-thiophen-2-yl}-ethanone] displayed an inhibition at 10 µM of 93.2%.

In turn, `Cn1nccc1C1=CCN(C(=O)c2nc3c(C(F)(F)F)cc(-c4ccoc4)cn3c2Cl)CC1` [Compound 586, (3-Chloro-6-furan-3-yl-8-trifluoromethyl-imidazo[1,2-a]pyridine-2-yl)-[4-(2-methyl-2H-pyrazol-3-yl)-3,6-dihydro-2H-pyridin-1-yl]-methanone] registered an inhibition at 10 µM of 86%. Compound `O=C(c1nc2c(C(F)(F)F)cc(-c3ccoc3)cn2c1Cl)N1CC=C(c2ccnc(F)c2)CC1` [Compound 587, (3-Chloro-6-furan-3-yl-8-trifluoromethyl-imidazo[1,2-a]pyridine-2-yl)-(2′-fluoro-3,6-dihydro-2H-[4,4′]bipyridinyl-1-yl)-methanone] displayed an inhibition at 10 µM of 76.9%. Under `O=C(c1nc2c(C(F)(F)F)cc(-c3ccoc3)cn2c1Cl)N1C=C(c2cscn2)CCC1` [Compound 588, (3-Chloro-6-furan-3-yl-8-trifluoromethyl-imidazo[1,2-a]pyridin-2-yl)-(5-thiazol-4-yl-3,4-dihydro-2H-pyridin-1-yl)-methanone] stands 84.5%; under `O=C(c1nc2c(C(F)(F)F)cc(-c3ccoc3)cn2c1Cl)N1CCC=C(c2cscn2)C1` [Compound 589, (3-Chloro-6-furan-3-yl-8-trifluoromethyl-imidazo[1,2-a]pyridin-2-yl)-(5-thiazol-4-yl-3,6-dihydro-2H-pyridin-1-yl)-methanone], 76%.

As to `O=C(c1nc2c(C(F)(F)F)cc(-c3ccoc3)cn2c1Cl)N1C=C(c2ccccc2F)CCC1` [Compound 590, (3-Chloro-6-furan-3-yl-8-trifluoromethyl-imidazo[1,2-a]pyridine-2-yl)-[5-(2-fluoro-phenyl)-3,4-dihydro-2H-pyridin-1-yl]-methanone], 10 µM produced 93.9% inhibition. For the compound `O=C(c1nc2c(C(F)(F)F)cc(-c3ccoc3)cn2c1Cl)N1CCC=C(c2ccccc2F)C1` [Compound 591, (3-Chloro-6-furan-3-yl-8-trifluoromethyl-imidazo[1,2-a]pyridine-2-yl)-[5-(2-fluoro-phenyl)-3,6-dihydro-2H-pyridin-1-yl]-methanone], the inhibition at 10 µM is 96.9%. Then `O=C(c1nc2c(C(F)(F)F)cc(-c3cn[nH]c3)cn2c1Cl)N1CC=C(c2ncccc2F)C1` [Compound 592], with 97.1%.

The compound `O=C(c1nc2c(C(F)(F)F)cc(-c3ccoc3)cn2c1Cl)N1CCC(Oc2ccccc2)C1` (stereo not shown) [Compound 593, (3-Chloro-6-furan-3-yl-8-trifluoromethyl-imidazo[1,2-a]pyridin-2-yl)-(3-phenoxy-pyrrolidin-1-yl)-methanone] came in with an inhibition at 10 µM of 89.5%.

Take `O=C(c1nc2c(C(F)(F)F)cc(-c3ccoc3)cn2c1Cl)N1CC=C(c2ccccc2)CC1` [Compound 594, (3-Chloro-6-furan-3-yl-8-trifluoromethyl-imidazo[1,2-a]pyridin-2-yl)-(4-phenyl-3,6-dihydro-2H-pyridin-1-yl)-methanone]: the inhibition at 10 µM is 88.5%.

Compound `O=C(c1nc2c(C(F)(F)F)cc(-c3ccoc3)cn2c1Cl)N1CC=C(c2ccc(F)cc2)CC1` [Compound 595, (3-Chloro-6-furan-3-yl-8-trifluoromethyl-imidazo[1,2-a]pyridin-2-yl)-[4-(4-fluoro-phenyl)-3,6-dihydro-2H-pyridin-1-yl]-methanone] yielded an inhibition at 10 µM of 77.2%.

`O=C(c1nc2c(C(F)(F)F)cc(-c3ccoc3)cn2c1Cl)N1CCN(c2ccc(F)cc2F)CC1` [Compound 596, (3-Chloro-6-furan-3-yl-8-trifluoromethyl-imidazo[1,2-a]pyridin-2-yl)-[4-(2,4-difluoro-phenyl)-piperazin-1-yl]-methanone] yielded an inhibition at 10 µM of 75.6%. Consider `O=C(c1nc2c(C(F)(F)F)cc(-c3ccoc3)cn2c1Cl)N1CCN(c2ncccn2)CC1` [Compound 597, (3-Chloro-6-furan-3-yl-8-trifluoromethyl-imidazo[1,2-a]pyridin-2-yl)-(4-pyrimidin-2-yl-piperazin-1-yl)-methanone], for which the inhibition at 10 µM was 38.7%.
